From patent publication EP0719552A2, “Pharmaceutical composition comprising a quinone derivative or a hydroquinone thereof for treating dermatitis” (Takeda Chemical Industries, Ltd., priority 1994, dated 1996) come the findings set out here.

Each structure is given as a SMILES string.

Test [1] deals with ascaris-immunized mouse splenocytes. Nature of the test: Ascaris-immunized mouse splenocytes (in vivo dosing): DNP-ascaris specific growth response, MTT. Also on record: species or system Balb/c mice. The following applies: 100 mg/kg/day orally 5 times weekly for 3 weeks; splenocytes cultured with 12.5 µg/ml DNP-ascaris 3 days; absorbance of non-sensitized splenocytes taken as 1 (sensitized 0.5% MC control 5.52). As for the experimental part: Method: Female Balb/c mice at 9 weeks of age (purchased from Shizuoka Laboratory Animal Center, Japan) were intraperitoneally administered 40 µg/mouse DNP-ascaris (2,4-dinitrophenylated ascaris extract, produced by LSL) together with Freund's complete adjuvant (FCA, produced by Difco, USA), 3 weeks later, splenocytes were collected. The compound 1((±)-7-(3,5,6-trimethyl-1,4-benzoquino-2-yl)-7-phenylheptonoic acid) was suspended in 0.5% methyl cellulose (MC) and orally administered at 100 mg/kg/day 5 times weekly for 3 weeks, starting at the day before DNP-ascaris administration. After final oral administration, the splenocyte mixture was prepared from the spleens of 5 animals per group, and suspended in RPMI-1640 medium (produced by Bio Whittaker, Inc., USA) containing inactivated fetal bovine serum (10% v/v, produced by Difco, USA), 2-mercaptoethanol (50 µM), L-glutamine (2 mM) and gentamicin (20 µg/ml) to yield a single cell suspension. After cell number was set to 3.3 × 10^6 cells/ml, DNP-ascaris was added to 96-well round-bottomed plates (produced by Sumitomo Bakelite Co., Ltd., Japan) at 12.5 µg/ml, and cultured at 37°C for 3 days in an incubator containing 5% carbon dioxide. […] To this culture, a 10% SDS-0.01N HCl mixture was added at 50 µl per well, followed by incubation in the carbon dioxide incubator for 18 hours, after which absorbance at 620 nm was determined.

Test [2] has as its system IL-5 mRNA. As to the kind of experiment: IL-5 mRNA expression in ovalbumin-immunized mouse splenocytes (oral dosing), RT-PCR. It counts as in vivo, Balb/c mice. Particulars: 10 and 100 mg/kg orally for two weeks; splenocytes cultured with 10 ug/ml OVA for 4, 7 and 24 hours; Fig. 1. As for the experimental part:
Method: Eight-week-old male Balb/c mice (Charles River Japan) immunized i.p. with 1 ug OVA absorbed to 1 mg Alum twice at an unterval of a week. Two weeks after the first immunization, splenocytes were prepared in RPMI-1640 (BioWhittaker, Inc., USA) containing 10% heat-inactivated fetal bovine serum (FBS, Bio Whittaker, Inc., USA), 50 uM 2-mercaptoethanol, 2 mM L-glutamine, and 20 ug/ml gentamicin. Compound 1 ((±)-7-(3,5,6-trimethyl-1,4-benzoquino-2-yl)-7-phenylheptonoic acid) at 10 and 100 mg/kg suspended with 0.5% methyl cellulose (MC) was given orally in a volume of 20 ml/kg for two weeks from a day before first immunization. […] Following the heat inactivation at 95°C for 10 min, one fifth of the cDNA mixtures was amplified by Ex Taq DNA polymerase (Takara Shuzoh, Japan) with the appropriate oligonucleatide primers (mouse IL-5 and β-actin amplimer set (Clontech). A DNA Thermal Cycler (Perkin Elmer) was used for 50 DNA amplification cycles, with a denaturation step at 95°C for 1 min, an annealing step at 55°C for 2 min, and an extension step at 72°C for 3 min. Twenty percent of the amplified DNA was analyzed by electrophoresis in a 2% GTG agarose gel. After staining with ethidium bromide, the DNA band was photographed under UV light. The data of the negatives were analyzed by NIH Image 1.55 software. […]

Test [3] concerns IL-4. As to the kind of experiment: Ascaris-immunized mouse splenocytes (in vitro): IL-4 production, ELISA. The test is classed as cell-based, Balb/c mice. The following applies: Splenocyte, 72 h, 25 µM drug, 40 µg/ml DNP-ascaris, 3 days, production in absence of compound taken as 100%, read-out: Suppression Rate (%) IL-4. How it is done:
(§1) Method: Female Balb/c mice at 9 weeks of age (purchased from Shizuoka Laboratory Animal Center, Japan) were intraperitoneally administered 40 µg/mouse DNP-ascaris (2,4-dinitrophenylated ascaris extract, produced by LSL), together with Freund's complete adjuvant (FCA, produced by Difco, USA), and, 3 weeks later, splenocytes were collected. Splenocyte mixture was prepared from the spleens and suspended in RPMI-1640 medium (produced by Bio Whittaker, Inc., USA) containing inactivated fetal bovine serum (10% v/v, produced by Difco, USA), 2-mercaptoethanol (50 µM), L-glutamine (2 mM) and gentamicin (20 µg/ml) to yield a single cell suspension. After cell number was set to 3.3 × 10^6 cells/ml, DNP-ascaris was added to 96-well round-bottomed plates (produced by Sumitomo Bakelite Co., Ltd., Japan) containing a 25 µM test drug, at 12.5 µg/ml, and cultured at 37°C for 3 days in a 5% carbon dioxide incubator. After completion of cultivation, 3-(4,5-dimethylthiazol-2-yl)-2,5-diphenyl-tetrazolium bromide (MTT, produced by Dojin Kenkyujo, Japan) in PBS buffer was added to each well at 0.86 mg/ml, followed by cultivation in the carbon dioxide incubator for 6 hours. To this culture, a 10% SDS-0.01 N HCl mixture was added at 50 µl per well, followed by incubation in the carbon dioxide incubator for 18 hours, after which absorbance at 620 nm was determined.
Next, DNP-ascaris was added to a 1.2 × 10^6 cells/ml splenocyte suspension in each 96-well round-bottomed plate containing a drug (25 µM), at 40 µg/ml, and cultured at 37°C for 3 days in the 5% carbon dioxide incubator. After this culture was centrifuged at 200 x g for 5 minutes, the culture supernatant was collected, and, the amount of IL-4 produced in each supernatant was determined by ELISA [mouse IL-4 ELISA kit (produced by Endogen, USA)].
Background: ELISA stands for enzyme-linked immunosorbent assay.

Test [4] relates to ovalbumin-immunized mouse splenocytes. Nature of the test: Ovalbumin-immunized mouse splenocytes (oral dosing): OVA-specific growth response, MTT. It counts as in vivo, Balb/c mice. The following applies: 100 mg/kg orally for two weeks; splenocytes cultured with 10 ug/ml OVA 3 days; non-sensitized taken as 1 (sensitized 0.5% MC control 2.07). How it is done:
Method: Seven-week-old made Balb/c mice (Charles River Japan) were used. Mice were immunized i.p. with 1 ug ovalbumin (OVA, albumin chicken egg grade III; Sigma, USA) in aluminium hydroxide hydrate gel suspension (Alum, ISL Co., Ltd., Japan) twice at an unterval of a week. Two weeks after first immunization, spleens were asceptically removed, and single cell suspension was prepared in RPMI-1640 (Bio Whittaker, Inc., USA) containing 10% heat-inactivated fetal calf serum (FCS, Bio Whittaker, Inc., USA), 50 uM 2-mercaptoethanol, 2 mM L-glutamine, and 20 ug/ml gentamicin. Compound 1((+)-7-(3,5,6-trimethyl-1,4-benzoquino-2-yl)-7-phenylheptonoic acid) at 100 mg/kg suspended with 0.5% methyl cellulose (MC) was given orally in a volume of 10 ml/kg for two weeks from a day before first immunization. […]
To study the effect of drug on the proliferation, 50 ul of 3 mg/ml 3(4,5-dimethylthiazol-2-yl)-2,5-diphenyltetrazolium bromide (MTT, Dojinedo Labs., Japan) resolved in phosphate buffered saline (PBS) was added into each well for final 6 hours of culture. The culture was completed by added 50 ul of 10% SDS resolved into 0.1 N HCl solution and after kept in 37°C for 18 hours, the absorbance at 620 nm was measured.

In test [5] the test system is IL-4. As to the kind of experiment: Ovalbumin-immunized mouse splenocytes (oral dosing): IL-4 production, ELISA. It counts as in vivo, Balb/c mice. Particulars: 100 mg/kg orally for two weeks, 10 ug/ml OVA 3 days. How it is done: (§2) Method: Seven-week-old made Balb/c mice (Charles River Japan) were used. Mice were immunized i.p. with 1 ug ovalbumin (OVA, albumin chicken egg grade III; Sigma, USA) in aluminium hydroxide hydrate gel suspension (Alum, ISL Co., Ltd., Japan) twice at an unterval of a week. Two weeks after first immunization, spleens were asceptically removed, and single cell suspension was prepared in RPMI-1640 (Bio Whittaker, Inc., USA) containing 10% heat-inactivated fetal calf serum (FCS, Bio Whittaker, Inc., USA), 50 uM 2-mercaptoethanol, 2 mM L-glutamine, and 20 ug/ml gentamicin. Compound 1((+)-7-(3,5,6-trimethyl-1,4-benzoquino-2-yl)-7-phenylheptonoic acid) at 100 mg/kg suspended with 0.5% methyl cellulose (MC) was given orally in a volume of 10 ml/kg for two weeks from a day before first immunization. Splenocytes (3.3 × 10^6 cells) were cultured with 10 ug/ml OVA in […] wells of a 96-well round-bottomed tissue culture plate (Sumitomo Bakelite Co., Ltd., Japan) and were kept in a humidified incubation at 37°C in 5% CO2 in air for three days.
(§3) To study the effect of the drug on the cytokine production, after centrifuged at 200×g for 5 minutes, the supernatant of the culture well was removed and its IL-4 and IL-5 contents were measured by ELISA kits (Endogen, USA).

In test [6] the test system is ascaris-immunized mouse splenocytes. Nature of the test: Ascaris-immunized mouse splenocytes (in vitro): DNP-ascaris stimulated growth, MTT. The test is classed as cell-based, Balb/c mice. Particulars: Splenocyte, 72 h, 25 µM test drug, 12.5 µg/ml DNP-ascaris, 3 days, absorbance in absence of compound taken as 100%, read-out: Suppression Rate (%) MTT. How it is done:
as §1

The subject of test [7] is IL-4. Nature of the test: Ascaris-immunized mouse splenocytes (in vivo dosing): IL-4 production, ELISA. Also on record: species or system Balb/c mice. The following applies: 100 mg/kg/day orally 5 times weekly for 3 weeks; splenocytes cultured with 40 µg/ml DNP-ascaris 3 days; non-sensitized taken as 1 (sensitized 0.5% MC control 15.8). As for the experimental part:
(§4) Method: Female Balb/c mice at 9 weeks of age (purchased from Shizuoka Laboratory Animal Center, Japan) were intraperitoneally administered 40 µg/mouse DNP-ascaris (2,4-dinitrophenylated ascaris extract, produced by LSL) together with Freund's complete adjuvant (FCA, produced by Difco, USA), 3 weeks later, splenocytes were collected. The compound 1((±)-7-(3,5,6-trimethyl-1,4-benzoquino-2-yl)-7-phenylheptonoic acid) was suspended in 0.5% methyl cellulose (MC) and orally administered at 100 mg/kg/day 5 times weekly for 3 weeks, starting at the day before DNP-ascaris administration. […] To this culture, a 10% SDS-0.01N HCl mixture was added at 50 µl per well, followed by incubation in the carbon dioxide incubator for 18 hours, after which absorbance at 620 nm was determined.
(§5) Next, DNP-ascaris was added to a 1.2 × 10^6 cells/ml splenocyte suspension in each 96-well round-bottomed plate at 40 µg/ml and cultured at 37°C for 3 days in the 5% carbon dioxide incubator. After this culture was centrifuged at 200 x g for 5 minutes, the culture supernatant was collected, and, the amounts of IL-4 and IL-5 produced in each supernatant were determined by ELISA [mouse IL-4 ELISA kit (produced by Endogen, USA); mouse IL-5 ELISA kit (produced by Endogen, USA)].

The subject of test [8] is IL-5. Nature of the test: Ovalbumin-immunized mouse splenocytes (oral dosing): IL-5 production, ELISA. The following applies: 100 mg/kg orally for two weeks, 10 ug/ml OVA 3 days. The test is classed as in vivo, Balb/c mice. As for the experimental part:
as §2, §3

Test [9] relates to IL-5. As to the kind of experiment: Ascaris-immunized mouse splenocytes (in vivo dosing): IL-5 production, ELISA. Particulars: 100 mg/kg/day orally 5 times weekly for 3 weeks; splenocytes cultured with 40 µg/ml DNP-ascaris 3 days; non-sensitized taken as 1 (sensitized 0.5% MC control 43.3). Also on record: species or system Balb/c mice. As for the experimental part: as §4, §5

`CC1=C(C)C(=O)C(C(CCCCCC(=O)O)c2ccccc2)=C(C)C1=O` (racemic) [Compound 1, (±)-7-(3,5,6-trimethyl-1,4-benzoquinon-2-yl)-7-phenylheptanoic acid]: the “DNP-ascaris Specific Growth Response, Relative Value” in test [1] is reported as 3.37. Besides, in test [2], the “antigen-stimulated IL-5 mRNA expression (ratio to β-actin PCR product)” value is on record as “inhibits antigen-stimulated IL-5 mRNA expression”. Moreover, the results for the inhibition at 25 µM in [3] and in test [6] were 15% and 44%, respectively. Besides, the “OVA-Specific Growth Response, Relative Value” in test [4] was found to be 1.75. Besides, the “Cytokine Production, Relative Value Exp. 1 IL-4” value in test [5] (Exp. 1, non-sensitized taken as 1 (sensitized 0.5% MC control 24.7)) came to 7.7. In addition, the “Cytokine Production, Relative Value Exp. 2 IL-4” value in test [5] (Exp. 2, non-sensitized taken as 1 (sensitized 0.5% MC control 14.2)) turned out to be 6.94. Also, the “Cytokine Production, Relative Value IL-4” value in [7] was determined as 9.21. In [8] (Exp. 1, non-sensitized taken as 1 (sensitized 0.5% MC control 7.3)), the “Cytokine Production, Relative Value Exp. 1 IL-5” value was determined as 4.8. Besides, the “Cytokine Production, Relative Value Exp. 2 IL-5” value in test [8] (Exp. 2, non-sensitized taken as 1 (sensitized 0.5% MC control 31.8)) was 21.7. For the same molecule, the “Cytokine Production, Relative Value IL-5” value in test [9] worked out at 13.6.
For `CC1=C(C)C(=O)C(C(CCCCCCC(=O)O)c2ccccc2)=C(C)C1=O` (stereo not drawn) [Compound 2], the inhibition at 25 µM in test [3] is 38%; in test [6] it was 40%.
On to `CC1=C(C)C(=O)C(C(CCC(=O)O)c2ccccc2)=C(C)C1=O` (stereo not drawn) [Compound 3], for which the inhibition at 25 µM was 38% in [3] and 36% in test [6].
As to `CC1=C(C)C(=O)C(C(CCCCCCCCC(=O)O)c2ccccc2)=C(C)C1=O` (stereo not drawn) [Compound 4], the inhibition at 25 µM was found to be 87% in [3] and 60% in test [6].
As to `COC1=C(OC)C(=O)C(C(CCCCCO)c2ccc(OC)cc2)=C(C)C1=O` (stereo not drawn) [Compound 5], the inhibition at 25 µM amounted to 80% in [3] and 46% in test [6].
On to `COC1=C(OC)C(=O)C(C(CCCCCC(=O)O)c2ccc(C(C)C)cc2)=C(C)C1=O` (stereo not drawn) [Compound 6], for which the inhibition at 25 µM amounted to 57% in test [3] and 33% in [6].
